pEC50: −log10 of the molar value.
What was measured:
C. neoformans Hsp90 NBD = C. neoformans Hsp90 NBD (Cryptococcus neoformans, UniProt J9VVA4); assay: Protein thermal shift assay, C. neoformans Hsp90 NBD; type: binding; settings: equimolar protein and ligand (10 μM)
Protocol: […]. Using recombinant proteins, assay-independent nanomolar inhibitory constants (Ki) were defined for these compounds. Binding of the compounds to their relevant NBD by thermal shift denaturation assays was also confirmed. Thermal shift assays were performed under saturating ligand conditions, i.e. equimolar concentrations (10 μM) of protein and ligand. As a result, they can provide only qualitative evidence of target binding, but not a quantitative measurement of ligand affinity. […] […]. C. neoformans or C. albicans Hsp90 NBD was combined with equimolar concentrations of the indicated bioactive inhibitors (10 μM) or DMSO control, in technical triplicates. The protein was heated from 25 to 98.6° C. at 0.2° C./5 s in the presence of Sypro Orange dye. All compounds induce an increase in melting temperature relative to the DMSO control, reported as ΔTm.
Protein thermal shift assays. Thermal melting curves were determined using a Protein Thermal Shift Kit (ThermoFisher #4462263), employing a CFX384 Real-Time PCR System (Bio-Rad, C1000 Touch Thermal Cycler). Reactions were performed in a final volume of 10 μL, and contained purified C. albicans or C. neoformans Hsp90 NBD diluted to 250 μg/mL in Buffer HBS-P (GE Healthcare Life Sciences, 0.01 M HEPES pH 7.4, 0.15 M NaCl, 0.005% v/v Surfactant P20) with 10 μM synthetic analog or DMSO control, and 1× Sypro Orange dye solution. Samples were prepared in triplicate in 384-well white plates (Bio-Rad; HSP3805). The instrument was set to melt curve, step 1 (25° C., 2 min) and step 2 (ramp to 98.6° C., increasing 0.2° C. per 5 s cycle). The inflection point of each curve is defined as the protein melting temperature (Tm). Temperature shift, ΔTm, was recorded as the difference between the Tm of the fungal Hsp90 NBD with compound minus Tm of the protein without compound.

in vitro = settings: both, CD-1, mouse; for half-life: microsomes
[1] = mouse liver microsomes; for % remaining at 15 min (NADPH-free): NADPH-free control; for % remaining at 15 min / % remaining at 60 min: with NADPH
[2] = test system: C. neoformans (Strain H99); assay: Antifungal sensitivity testing (MIC), C. neoformans H99; type: cell-based; settings: for MIC80 / MIC90: Cryptococcus neoformans; for MIC80: read-out: C. neo MIC80; for MIC90: read-out: C. neo MIC90
Protocol: Color scale bar: no growth inhibition (green) to complete inhibition (black). Each shaded box represents the mean of technical duplicates. The experiment was repeated as an independent biological replicate to confirm results.
Minimum inhibitory concentration (MIC) value for compounds against C. neoformans (Strain H99) was determined in dose-response format, in technical duplicate. Experiments were conducted in RPMI medium at 37° C. for 48 h. Relative viable cell number was measured by standard dye reduction (resazurin) assay.
Yeast strains and culture conditions. Strains used in this study were C. albicans CaCi2 (clinical isolate 2), [58] SC5314, [59] and C. neoformans H99. […] Active cultures were maintained on solid (2% agar) yeast extract peptone (YPD, 1% yeast extract, 2% bactopeptone, 2% glucose) at 4° C. for no more than one month.
Antifungal sensitivity testing. […] Each compound was tested in duplicate in at least two independent experiments. […] Plates were photographed after 24 h of incubation at 30° C.

[3] = target: Hsp90 (C. albicans whole cell lysate) (Candida albicans (strain SC5314 / ATCC MYA-2876) (Yeast), UniProt P46598); assay: biochemical; type: binding; settings: for C. alb Active (biochemical): Yes/No call; for pEC50: read-out: C. alb EC50
Protocol: (§1) All analogs were assessed for Hsp90 binding affinity using a fluorescence polarization (FP)-based equilibrium competition assay in fungal and human whole cell lysates. […] Using lysates, the relative potency and selectivity for fungal Hsp90 was measured versus the entire ensemble of human Hsp90 isoforms in microplate format using small amounts of test materials. […] Thermal shift assays were performed under saturating ligand conditions, i.e. equimolar concentrations (10 μM) of protein and ligand. As a result, they provided qualitative evidence of target binding, but not a quantitative measurement of ligand affinity. For quantitation, a ligand dissociation constant (Ki) for key compounds was also determined using purified NBDs in FP assays and KD measurements were made by surface plasmon resonance (SPR) using a Biacore instrument. Finally, all analogs were assessed for whole cell antifungal activity against the pathogens C. albicans and C. neoformans.
(§2) FP assays. Whole cell lysates were prepared for FP assays as described previously. Total protein concentration of human and yeast lysates was determined by Bradford assay. […] Serial dilutions of test Hsp90 inhibitors were then assayed under these same conditions to monitor loss of fluorescence polarization as an indicator of probe displacement from Hsp90. […] Titrations of test compound in 25 μL of binding buffer (supplemented with 0.1 mg/mL bovine gamma globulin), were mixed with an equal volume of freshly prepared whole-cell lysate spiked with Cy3-GdA (0.1 nM). Plates were incubated at room temperature for 4.5 h to achieve equilibrium binding for the geldanamycin-based probe. […] Non-linear 4-parameter curve fitting of raw displacement data was performed in GraphPad Prism 5.0 to determine EC50 values as a measure of relative Hsp90-binding affinity. Results were normalized to the value determined for GdA in lysate of each cell type.
(§3) Statistical methods. […] In calculating the error of selectivity determinations, the fractional error of measurements in each species was summed to yield a composite error for the derived ratio.

[4] = target: Hsp90 (C. neoformans whole cell lysate) (Cryptococcus neoformans, UniProt J9VVA4); type: binding; settings: for pEC50: read-out: C. neo EC50
Hsp90 (C. neoformans whole cell lysate) (Cryptococcus neoformans, UniProt J9VVA4), sequence (J9VVA4 1-699): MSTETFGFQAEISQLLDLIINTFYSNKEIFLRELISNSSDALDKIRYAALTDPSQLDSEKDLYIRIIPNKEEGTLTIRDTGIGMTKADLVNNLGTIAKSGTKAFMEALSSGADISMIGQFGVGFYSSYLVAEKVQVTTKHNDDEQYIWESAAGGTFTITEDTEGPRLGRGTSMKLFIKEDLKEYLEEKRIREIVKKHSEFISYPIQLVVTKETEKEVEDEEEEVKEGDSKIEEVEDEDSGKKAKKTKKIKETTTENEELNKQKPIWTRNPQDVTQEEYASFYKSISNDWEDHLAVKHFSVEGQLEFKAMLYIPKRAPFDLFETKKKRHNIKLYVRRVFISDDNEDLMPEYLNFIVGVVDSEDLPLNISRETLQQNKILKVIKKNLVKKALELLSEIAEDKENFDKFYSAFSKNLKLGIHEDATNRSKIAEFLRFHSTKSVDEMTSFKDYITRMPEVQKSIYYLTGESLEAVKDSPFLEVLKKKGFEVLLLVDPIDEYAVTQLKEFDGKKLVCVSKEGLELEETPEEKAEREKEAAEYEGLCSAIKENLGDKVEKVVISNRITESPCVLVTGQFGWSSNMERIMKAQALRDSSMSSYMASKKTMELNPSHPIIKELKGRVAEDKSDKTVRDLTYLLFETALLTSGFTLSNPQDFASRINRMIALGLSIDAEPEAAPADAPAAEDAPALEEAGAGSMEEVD
Protocol: as §1, §2, §3

[5] = test system: Hsp90 (C. neoformans whole cell lysate); type: binding; settings: C. neo FS calculated using EC50
Protocol: as §1, §2, §3

[6] = test system: Hsp90 (C. albicans whole cell lysate); assay: biochemical; type: binding; settings: for C. alb Selective: Yes/No call
Protocol: as §1, §2, §3

C. neoformans Hsp90 NBD, sequence (J9VVA4 1-699): as above

| SMILES | C. neoformans NBD ΔTm (C. neoformans Hsp90 NBD) [°C] | CLint scaled at 1 μM (in vitro; liver microsomes) [mL/min/kg] | % remaining at 15 min (NADPH-free) [1] [%] | % remaining at 15 min [1] [%] | % remaining at 60 min [1] [%] | C. alb Active (biochemical) [3] | pEC50 [4] | C. neo Selectivity (FS) [5] | C. neo MIC80 [2] [µM] | C. neo MIC90 [2] [µM] | pEC50 [3] | C. alb Selectivity (FS) [6] | C. alb Selective [6] | other results |
| --- | --- | --- | --- | --- | --- | --- | --- | --- | --- | --- | --- | --- | --- | --- |
| COc1ccc(Cn2nc(-c3ccccc3)cc2Nc2cc(O)cc(O)c2C(=O)N2Cc3ccc(F)cc3C2)cc1 [Compound 29, 4-(5-Fluoro-2,3-dihydro-1H-isoindole-2-carbonyl)-5-((1-((4-methoxyphenyl)methyl)-3-phenyl-1H-pyrazol-5-yl)amino)benzene-1,3-diol] | 14 |  |  |  |  |  |  |  |  |  |  |  |  |  |
| Cn1nc(C2CCCCC2)cc1Nc1cc(O)cc(O)c1C(=O)N1Cc2cn[nH]c2C1 [Compound 105, 5-((3-Cyclohexyl-1-methyl-1H-pyrazol-5-yl)amino)-4-(1H,4H,5H,6H-pyrrolo[3,4-c]pyrazole-5-carbonyl)benzene-1,3-diol] |  | 1990 | 103.6 | 2.3 | 0 |  |  |  |  |  |  |  |  | half-life at 1 μM (in vitro; liver microsomes): 2.7 min |
| Cn1nc(-c2ccc(C(C)(C)C)cc2)cc1Nc1cc(O)cc(O)c1C(=O)N1Cc2ccccc2C1 [Compound 127, 5-((3-(4-tert-Butylphenyl)-1-methyl-1H-pyrazol-5-yl)amino)-4-(2,3-dihydro-1H-isoindole-2-carbonyl)benzene-1,3-diol] | 0 |  |  |  |  |  |  |  |  |  |  |  |  |  |
| CC(C)c1ccc(Cn2nccc2Nc2cc(O)cc(O)c2C(=O)N2Cc3ccccc3C2)cc1 [Compound 83, (2,4-Dihydroxy-6-((1-(4-isopropylbenzyl)-1H-pyrazol-5-yl)amino)phenyl)(isoindolin-2-yl)methanone] |  | 1770 | 109.1 | 3.4 | 1.8 | Yes |  |  |  |  |  |  |  | MIC80 [2]: > 25 µM; MIC90 [2]: > 25 µM; half-life (in vitro): 3.1 min |
| Cn1nc(-c2ccc(C(C)(C)C)cc2)cc1Nc1cc(O)cc(O)c1C(=O)N1Cc2cn[nH]c2C1 [Compound 129, 5-((3-(4-tert-Butylphenyl)-1-methyl-1H-pyrazol-5-yl)amino)-4-(1H,4H,5H,6H-pyrrolo[3,4-c]pyrazole-5-carbonyl)benzene-1,3-diol] |  | 847 | 97.9 | 21.1 | 0.5 |  |  |  |  |  |  |  |  | C. neo Active (biochemical) ([4]; Yes/No call): Yes; MIC80 [2]: > 25 µM; MIC90 [2]: > 25 µM; C. neo Active (cells) ([2]; Yes/No call): No; half-life (in vitro): 6.4 min |
| CN1CCN(c2ccc3c(c2)CN(C(=O)c2c(O)cc(O)cc2Nc2cc(-c4cccc(C(F)(F)F)c4)nn2C)C3)CC1 [ACSM01487] |  |  |  |  |  | Yes | 7.26 | 50.1 | >25 | >25 | 5.94 | 2.3 | No |  |
| COc1cccc(-c2cc(Nc3cc(O)cc(O)c3C(=O)N3Cc4ccncc4C3)n(C)n2)c1 [ACSM01492] |  |  |  |  |  | Yes | 6.59 | 46.2 | >25 | >25 | 4.97 | 1.1 | No |  |
| Cc1cccc(-c2cc(Nc3cc(O)cc(O)c3C(=O)N3Cc4ccc(N5CCN(C)CC5)cc4C3)n(C)n2)c1 [ACSM01279] |  |  |  |  |  | Yes | 6.35 | 18.3 | >25 | >25 | 5.67 | 3.7 | No |  |
| Cc1cccc(-c2cc(Nc3cc(O)cc(O)c3C(=O)N3Cc4cn[nH]c4C3)n(C)n2)c1 [Compound 111, 5-((1-Methyl-3-(3-methylphenyl)-1H-pyrazol-5-yl)amino)-4-(1H,4H,5H,6H-pyrrolo[3,4-c]pyrazole-5-carbonyl)benzene-1,3-diol] |  | 582 | 115.3 | 20.2 | 1.8 | Yes |  |  |  |  |  |  |  | MIC80 [2]: > 25 µM; MIC90 [2]: > 25 µM; half-life (in vitro): 9.4 min |
| CC(C)c1cc(Nc2cc(O)cc(O)c2C(=O)N2Cc3ccccc3C2)n(C)n1 [Compound 100, 4-(2,3-Dihydro-1H-isoindole-2-carbonyl)-5-((1-methyl-3-(propan-2-yl)-1H-pyrazol-5-yl)amino)benzene-1,3-diol] | 11 |  |  |  |  |  |  |  |  |  |  |  |  |  |
| Cc1cccc(-c2cc(Nc3cc(O)cc(O)c3C(=O)N3Cc4ccc(N5CCOCC5)cc4C3)n(C)n2)c1 [ACSM01280] |  |  |  |  |  | No | 5.70 | 6 | >25 | >25 | < 5.00 |  | No |  |
| COc1ccc(Cn2nc(C(C)(C)C)cc2Nc2cc(O)cc(O)c2C(=O)N2Cc3ccccc3C2)cc1 [Compound 49, (2-((3-(tert-Butyl)-1-(4-methoxybenzyl)-1H-pyrazol-5-yl)amino)-4,6-dihydroxyphenyl)(isoindolin-2-yl)methanone] | 14 |  |  |  |  |  |  |  |  |  |  |  |  |  |
| O=C(c1c(O)cc(O)cc1Nc1cc(-c2ccccc2)nn1-c1ccccc1)N1Cc2ccccc2C1 [ACSM01305] |  |  |  |  |  | Yes | 6.24 | 8.1 | 6.25 | 3 | 5.72 | 0.9 | No |  |

From patent publication US11312722B2, “Hsp90 inhibitors and uses thereof” (TRUSTEES OF BOSTON UNIVERSITY, priority 2019, dated 2022)
